From patent publication US9815863B2, “Hydrogen bond forming fluoro ketolides for treating diseases” (priority 2010, dated 2017) come the findings set out here.

The subject of assay [1] is E. coli ribosomes (23S rRNA). Description: RNA footprinting (ribosome chemical probing), wild-type E. coli ribosomes. To be noted: 100 μM antibiotic; for Protection of A752 from DMS modification: E. coli ribosomes. It is filed as binding. How it is done: (§1) Ribosome chemical probing. rRNA probing was done following standard protocols (Merryman, C., and H. F. Noller. 1998. Footprinting and modification-interference analysis of binding sites on RNA, p. 237-253. In C. W. J. Smith (ed.), RNA:Protein Interactions, A Practical Approach. Oxford University Press, Oxford), with minor modifications. Briefly, 200 nM ribosomes were incubated with 100 μM antibiotic in 50 μL of buffer B (80 mM HEPES-KOH [pH 7.8], 20 mM MgCl2, 100 mM NH4Cl, 1.5 mM dithiothreitol) for 10 min at 37° C., followed by 10 min at 20° C. Modifying reagents (dimethyl sulfate [DMS], kethoxal, or 1-cyclohexyl-3-(2-morpholinoethyl)carbodiimide metho p-toluene sulfonate [CMCT]) were added and the modification reaction was carried out for 10 min at 37° C. After quenching the reaction and ethanol precipitation, rRNA was extracted and the distribution of modified nucleotides was assessed by primer extension.
(§2) Interactions of CEM-101 with wild-type E. coli and S. aureus ribosomes in solution. […] 1987. Chloramphenicol, erythromycin, carbomycin and vernamycin B protect overlapping sites in the peptidyl transferase region of 23S ribosomal RNA. Biochimie 69:879-884). Also included in this study was a C3-cladinose cousin of CEM-101, CEM-103, which lacks the C2-linked fluorine atom.

For assay [2], the system named is S. aureus ribosomes (23S rRNA). Description: RNA footprinting (ribosome chemical probing), wild-type S. aureus ribosomes. It is filed as binding. The note with it: 100 μM antibiotic; for Protection of A752 from DMS modification: S. aureus ribosomes. How it is done: as §1, §2
Assay [3] concerns 2058-dimethylated ribosomes isolated from the S. aureus N315 strain. Nature of the assay: RNA footprinting of A2058-dimethylated (Erm-modified) ribosomes from S. aureus N315. To be noted: S. aureus N315 ribosomes dimethylated at A2058, drugs at 100 μM. The assay is classed as binding. How it is done:
as §1
Interaction of CEM-101 with S. aureus ribosomes dimethylated at A2058 by Erm-methyltransferase. Erm-methyltransferase modifies A2058 in 23S rRNA by consecutively adding two methyl groups to the exocyclic amino group of the adenine base. Such modification completely blocks binding of erythromycin and similar macrolides, whereas its effect on binding of ketolides is less clear (Douthwaite, S., L. H. Hansen, and P. Mauvais. 2000. Macrolide-ketolide inhibition of MLS-resistant ribosomes is improved by alternative drug interaction with domain R of 23S rRNA. Mol. Microbiol. 36:183-193; Liu, M., and S. Douthwaite. 2002. Activity of the ketolide telithromycin is refractory to Erm monomethylation of bacterial rRNA. Antimicrob. Agents Chemother. 46:1629-1633). Therefore, interaction of CEM-101 with the ribosomes isolated from a clinical S. aureus strain N315, which carries five chromosomal copies of constitutively expressed ermA gene present in the Tn554 transposon (Kuroda, M., T. Ohta, I. Uchiyama, T. Baba, H. Yuzawa, I. Kobayashi, L. Cui, A. Oguchi, K. Aoki, Y. Nagai, J. Lian, T. Ito, M. Kanamori, H. Matsumaru, A. Maruyama, H. Murakami, A. Hosoyama, Y. Mizutani-Ui, N. K. Takahashi, T. Sawano, R. Inoue, C. Kaito, K. Sekimizu, H. Hirakawa, S. Kuhara, S. Goto, J. Yabuzaki, M. Kanehisa, A. Yamashita, K. Oshima, K. Furuya, C. Yoshino, T. Shiba, M. Hattori, N. Ogasawara, H. Hayashi, and K. Hiramatsu. 2001. Whole genome sequencing of meticillin-resistant Staphylococcus aureacs. Lancet 357:1225-1240) was investigated.
Footprinting analysis was used to test interactions of ketolides (CEM-101 and telithromycin) and cladinose-containing macrolides (CEM-103 and erythromycin) with the 2058-dimethylated ribosomes isolated from the S. aureus N315 strain. Ribosomes were incubated with the drugs (present at 100 μM concentration) and probed by DMS modification. Because dimethylated A2058 blocks progression of reverse transcriptase along the RNA template, a strong reverse transcriptase stop is observed at A2058 on the primer extension gel (Vester, B., and S. Douthwaite. 1994. Domain V of 23S rRNA contains all the structural elements necessary for recognition by the ErmE methyltransferase. J. Bacteriol. 176:6999-7004; Zhong, P., Z. Cao, R. Hammond, Y. Chen, J. Beyer, V. D. Shortridge, L. Y. Phan, S. Pratt, J. Capobianco, K. A. Reich, R. K. Flamm, Y. S. Or, and L. Katz. 1999. Induction of ribosome methylation in MLS-resistant Streptococcus pneumoniae by macrolides and ketolides. Microb. Drug Resist. 5:183-188). Therefore, it is impossible to use footprinting to evaluate interactions of macrolides with this position in the S. aureus N315 ribosomes. […]

Assay [4] concerns S. pneumoniae ATCC 49619/WT. Nature of the assay: Conventional antibacterial screen. It is filed as cell-based.
The subject of assay [5] is S. pneumoniae 117-20B/WT. Nature of the assay: Conventional antibacterial screen. The assay is classed as cell-based.
Assay [6] relates to S. pneumoniae 014-4331A/mefA. Description: Conventional antibacterial screen. It is filed as cell-based.
Assay [7] concerns S. pneumoniae 007-4589A/ermB. Description: Conventional antibacterial screen. It is filed as cell-based.
Assay [8] relates to S. pneumoniae 120-1037B/-ermB/mefA. Nature of the assay: Conventional antibacterial screen. It is filed as cell-based.
In assay [9] the test system is S. pyogenes ATCC 19615. Description: Conventional antibacterial screen. The assay is classed as cell-based.
In assay [10] the test system is S. pyogenes 129-7129A/ermA. Nature of the assay: Conventional antibacterial screen. The assay is classed as cell-based.
The test system of assay [11] is S. pyogenes 089-14217A/ermB. Nature of the assay: Conventional antibacterial screen. It is filed as cell-based.
In assay [12] the test system is S. aureus 024-11A/WT. Description: Conventional antibacterial screen. It is filed as cell-based.
For assay [13], the system named is S. aureus ATCC 29213/WT. Description: Conventional antibacterial screen. It is filed as cell-based.
The test system of assay [14] is S. aureus BAA-977/ermA. Description: Conventional antibacterial screen. The assay is classed as cell-based.
For assay [15], the system named is S. aureus D-5/ermA. Nature of the assay: Conventional antibacterial screen. The assay is classed as cell-based.
Assay [16] has as its system M. luteus ATCC 9341/WT. Description: Conventional antibacterial screen. It is filed as cell-based.
In assay [17] the test system is E. coli ATCC 25922/WT. Nature of the assay: Conventional antibacterial screen. It is filed as cell-based.
Assay [18] has as its system E. coli 122-5930A/WT. Description: Conventional antibacterial screen. It is filed as cell-based.
The test system of assay [19] is Streptococcus pneumoniae Pen^S, Tel^S, Mac^S. Nature of the assay: MIC against streptococci clinical isolates (Table 3). The assay is classed as cell-based. The note with it: 10 strains.
The test system of assay [20] is Streptococcus pneumoniae Pen^R, Tel^1/^R, Mac^R. Described as above. It is filed as cell-based. The note with it: S. pneumoniae Pen^R, 12 strains, constitutive ermB.
Assay [21] concerns Streptococcus pyogenes Tel^S, Mac^S. The description is as above. The assay is classed as cell-based. The note with it: 10 strains.
Assay [22] deals with Streptococcus pyogenes Tel^R, Mac^R. The assay is described as above. It is filed as cell-based. The note with it: S. pyogenes Tel^R, Mac^R; 9 strains (8 ermB, 1 ermA, constitutive).
The test system of assay [23] is bacterial protein synthesis (E. coli S30 extract). Nature of the assay: E. coli cell-free transcription-translation (TnT) S30 system, firefly luciferase synthesis. The note with it: read-out: IC50 of inhibition of firefly luciferase synthesis, ribosomes 600 nM.

For “11-N-[4-[4-(3-aminophenyl)[1,2,3]triazol-1-yl]butyl]-6-O-methylerythromycin A 11,12-cyclic carbamate [CEM-103]”, the “Protection of A752 from DMS modification” value in assay [1] and in assay [2] was “strongly protects” throughout. The “Protection of A2058 and A2059 in domain V of 23S rRNA from modification with DMS” value in assay [1] (E. coli wild-type ribosomes) and in [2] (S. aureus wild-type ribosomes) was “protect” in each case. Besides, the “Protection of A2059 from DMS modification (binding to Erm-modified ribosome)” value in assay [3] is reported as “protection of A2059 from DMS modification”. Also, in assay [3], the “Protection of G2505 from kethoxal modification” value is recorded as “partially protected”. For the same compound, the “Protection of U2609 from modification with CMCT” value in assay [3] is “fully protected”.
`CC[C@H]1OC(=O)[C@H](C)C(=O)[C@H](C)[C@@H](OC2O[C@H](C)C[C@H](N(C)C)[C@H]2O)[C@@](C)(OC)C[C@@H](C)C(=O)[C@H](C)[C@H]2N(CCCCn3cc(Cc4c[nH]c5ccccc45)nn3)C(=O)O[C@]12C` (stereo partly shown) [CEM-199, 5-O-desosaminyl-11-N-[4-[4-(indol-3-ylmethyl)[1,2,3]triazol-1-yl]butyl]-6-O-methyl-3-oxo-erythronolide A 11,12-cyclic carbamate]: the Screening result came out at 0.06 in assay [4]; 0.06 in assay [5]; 1 in assay [6]; 0.12 in assay [7]; 0.5 in assay [8]; 0.06 in assay [9]. The Screening result in assay [10] was 0.12; in [11], 1; in assay [12], 0.5; in assay [13], 0.5; in assay [14], 0.5; in assay [15] it was over 16. In addition, the figures for the Screening result in assay [16], in assay [17] and in assay [18] were 0.06, 16 and 16, respectively.
One may read the MIC50 as the lowest concentration that inhibits either 50% of growth or 50% of the strains tested, depending on the study. A lower MIC50 goes with greater potency. In general, MIC90 refers to an inhibitory concentration at the 90% level, which refers to growth in some studies and to a panel of isolates in others. Low readings indicate greater potency, high ones weaker potency. On to “11-N-[4-[4-(3-aminophenyl)[1,2,3]triazol-1-yl]butyl]-5-O-desosaminyl-6-O-methyl-3-oxo-erythronolide A 11,12-cyclic carbamate [CEM-Des-F]”, for which the MIC50 in assay [19] is 0.03 µg/mL; in assay [20], 4 µg/mL; in [21], 0.03 µg/mL; in assay [22], 2 µg/mL. The MIC90 in assay [19] came to 0.03 µg/mL; in assay [20], 4 µg/mL; in assay [21], 0.03 µg/mL; in assay [22], 2 µg/mL.
In general, IC50 refers to the concentration needed to halve the response being measured. `CC[C@H]1OC(=O)[C@H](C)[C@@H](O[C@H]2C[C@@](C)(OC)[C@@H](O)[C@H](C)O2)[C@H](C)[C@@H](O[C@@H]2O[C@H](C)C[C@H](N(C)C)[C@H]2O)[C@](C)(O)C[C@@H](C)CN(C)[C@H](C)[C@@H](O)[C@]1(C)O` [azithromycin]: the IC50 in [23] turned out to be 300 nM.
For the compound `CC[C@H]1OC(=O)[C@H](C)C(=O)[C@H](C)[C@@H](O[C@@H]2O[C@H](C)C[C@H](N(C)C)[C@H]2O)[C@](C)(OC)C[C@@H](C)C(=O)[C@H](C)[C@H]2N(CCCCn3cnc(-c4cccnc4)c3)C(=O)O[C@]12C` [telithromycin], the “Protection of A752 from DMS modification” value in assay [1] is recorded as “strongly protects”. Moreover, the “Protection of A752 from DMS modification” value in assay [2] is on record as “strongly protects”. Also, in assay [3], the “Protection of A2059 from DMS modification (binding to Erm-modified ribosome)” value was “protected A2059 but to a lesser extent than CEM-101 or CEM-103”, the “Protection of G2505 from kethoxal modification” value is recorded as “notably weaker protection” and the “Protection of U2609 from modification with CMCT” value is reported as “notably weaker protection”. Further, the IC50 in assay [23] was 500 nM.
Take `CC[C@H]1OC(=O)[C@@](C)(F)C(=O)[C@H](C)[C@@H](OC2O[C@H](C)C[C@H](N(C)C)[C@H]2O)[C@@](C)(OC)C[C@@H](C)C(=O)[C@H](C)[C@H]2N(CCCCn3cc(Cc4c[nH]c5ccccc45)nn3)C(=O)O[C@]12C` (stereo partly shown) [CEM-219, 2-fluoro-5-O-desosaminyl-11-N-[4-[4-(indol-3-ylmethyl)[1,2,3]triazol-1-yl]butyl]-6-O-methyl-3-oxo-erythronolide A 11,12-cyclic carbamate]: the Screening result in assay [4] is given as “≦0.015”; in assay [5], “≦0.015”; in [6], 0.5; in [7], “≦0.015”; in [8], 0.12; in [9], “≦0.015”. The Screening result in [10] is given as “≦0.015”; in assay [11], 0.5; in assay [12], 0.5; in assay [13], 0.25; in assay [14] it was 0.25; in [15] it was over 16. For the same compound, the figures for the Screening result in assay [16], in assay [17] and in [18] were “≦0.015”, over 16 and over 16, respectively.
